Key:
Format in all cases: in vivo
[1] = tested on: ducksalad (Heteranthera limosa); experiment: Test B flooded paddy test; conditions: for Plant response rating, Flood, Ducksalad: 250 g ai/ha, flooded paddy test, visual rating on 0 to 100 scale (0 no effect, 100 complete control) after 13 to 15 days; for Plant response rating, Ducksalad: Flood (flooded paddy test), 62 g ai/ha, scale of 0 to 100 where 0 is no effect and 100 is complete control, 13 to 15 days
Text: (§1) Plant species in the flooded paddy test consisted of rice (Oryza sativa), umbrella sedge (Cyperus difformis), ducksalad (Heteranthera limosa) and barnyardgrass (Echinochloa crus-galli) grown to the 2-leaf stage for testing. At the time of treatment, test pots were flooded with water to 3 cm above the soil surface, treated by application of test compounds directly to the paddy water, and then maintained at that water depth for the duration of the test.
(§2) Treated plants and controls were maintained in a greenhouse for 13 to 15 days, after which time all treated plants were visually evaluated and compared to controls. Plant response ratings, summarized in Table B, are based on a scale of 0 to 100 where 0 is no effect and 100 is complete control. A dash (-) response means no test result.

[2] = tested on: umbrella sedge (Cyperus difformis); experiment: Test B flooded paddy test; conditions: for Plant response rating, Flood, Sedge, Umbrella: 250 g ai/ha, flooded paddy test, visual rating on 0 to 100 scale (0 no effect, 100 complete control) after 13 to 15 days; for Plant response rating, Sedge, Umbrella: Flood (flooded paddy test), 62 g ai/ha, scale of 0 to 100 where 0 is no effect and 100 is complete control, 13 to 15 days
Text: as §1, §2

[3] = tested on: rice (Oryza sativa); experiment: Test B flooded paddy test; conditions: for Plant response rating, Flood, Rice: 250 g ai/ha, flooded paddy test, visual rating on 0 to 100 scale (0 no effect, 100 complete control) after 13 to 15 days; for Plant response rating, Rice: Flood (flooded paddy test), 62 g ai/ha, scale of 0 to 100 where 0 is no effect and 100 is complete control, 13 to 15 days
Text: as §1, §2

[4] = tested on: barnyardgrass (Echinochloa crus-galli); experiment: Test B flooded paddy test; conditions: for Plant response rating, Flood, Barnyardgrass: 250 g ai/ha, flooded paddy test, visual rating on 0 to 100 scale (0 no effect, 100 complete control) after 13 to 15 days; for Plant response rating, Barnyardgrass: Flood (flooded paddy test), 62 g ai/ha, scale of 0 to 100 where 0 is no effect and 100 is complete control, 13 to 15 days
Text: as §1, §2

[5] = tested on: giant foxtail (Setaria faberii); experiment: Test A pre-/postemergence plant response
Text: (§3) Seeds of barnyardgrass (Echinochloa crus-galli), large crabgrass (Digitaria sanguinalis), giant foxtail (Setaria faberii), morningglory (Ipomoea spp.), pigweed (Amaranthus retroflexus), velvetleaf (Abutilon theophrasti), wheat (Triticum aestivum) and corn (Zea mays) were planted into a blend of loam soil and sand and treated preemergence with a directed soil spray using test chemicals formulated in a non-phytotoxic solvent mixture which included a surfactant. At the same time these species were also treated with postemergence applications of test compounds formulated in the same manner.
(§4) Plants ranged in height from two to ten cm and were in the one- to two-leaf stage for the postemergence treatment. Treated plants and untreated controls were maintained in a greenhouse for approximately ten days, after which time all treated plants were compared to untreated controls and visually evaluated for injury. Plant response ratings, summarized in Table A, are based on a 0 to 100 scale where 0 is no effect and 100 is complete control. A dash (-) response means no test result.

[6] = tested on: morningglory (Ipomoea spp.); experiment: Test A pre-/postemergence plant response
Text: as §3, §4

[7] = tested on: pigweed (Amaranthus retroflexus); experiment: Test A pre-/postemergence plant response
Text: as §3, §4

[8] = tested on: corn (Zea mays); experiment: Test A pre-/postemergence plant response
Text: as §3, §4

[9] = tested on: velvetleaf (Abutilon theophrasti); experiment: Test A pre-/postemergence plant response
Text: as §3, §4

[10] = tested on: wheat (Triticum aestivum); experiment: Test A pre-/postemergence plant response
Text: as §3, §4

[11] = tested on: barnyardgrass (Echinochloa crus-galli); experiment: Test A pre-/postemergence plant response
Text: as §3, §4

[12] = tested on: large crabgrass (Digitaria sanguinalis); experiment: Test A pre-/postemergence plant response
Text: as §3, §4

[13] = Postemergence, 125 g ai/ha, 0 to 100 scale where 0 is no effect and 100 is complete control
[14] = Postemergence, 500 g ai/ha, 0 to 100 scale, 0 = no effect, 100 = complete control, approx. ten days
[15] = Preemergence, 125 g ai/ha, 0 to 100 scale, 0 = no effect, 100 = complete control
[16] = Preemergence, 500 g ai/ha, visual injury, 0 to 100 scale (0 no effect, 100 complete control), approx. ten days

Row | SMILES | Plant response rating, Flood, Ducksalad [1] | Plant response rating, Ducksalad [1] | Plant response rating, Flood, Sedge, Umbrella [2] | Plant response rating, Sedge, Umbrella [2] | Plant response rating, Flood, Rice [3] | Plant response rating, Rice [3] | Plant response rating, Flood, Barnyardgrass [4] | Plant response rating, Barnyardgrass [4] | Plant response rating, Foxtail, Giant [5, 13] | Plant response rating, Foxtail, Giant [5, 14] | Plant response rating, Foxtail, Giant [5, 15] | Plant response rating, Foxtail, Giant [5, 16] | Plant response rating, Morningglory [6, 13] | Plant response rating, Morningglory [6, 14] | Plant response rating, Morningglory [6, 16] | Plant response rating, Pigweed [7, 13] | Plant response rating, Pigweed [7, 14] | Plant response rating, Pigweed [7, 15] | Plant response rating, Pigweed [7, 16] | Plant response rating, Corn [8, 13] | also measured
1 | CCCn1c(-c2ccc(Br)cc2)ncc(C(=O)C2=C(O)CCCC2=O)c1=O [Compound 134] | 0 | 0 | 0 | 0 | 0 | 0 | 0 | 0 | 40 | 70 | 0 | 30 | 0 | 60 | 30 | 70 | 80 | 0 | 60 | 0 | Plant response rating, Corn [8, 14]: 20; Plant response rating, Corn [8, 15]: 0; Plant response rating, Corn [8, 16]: 0; Plant response rating, Velvetleaf [9, 13]: 100; Plant response rating, Velvetleaf [9, 14]: 100; Plant response rating, Velvetleaf [9, 15]: 70; Plant response rating, Velvetleaf [9, 16]: 70; Plant response rating, Wheat [10, 13]: 0; Plant response rating, Wheat [10, 14]: 0; Plant response rating, Wheat [10, 15]: 0; Plant response rating, Wheat [10, 16]: 0; Plant response rating, Barnyardgrass [11, 13]: 10; Plant response rating, Barnyardgrass [11, 14]: 60; Plant response rating, Barnyardgrass [11, 15]: 0; Plant response rating, Barnyardgrass [11, 16]: 10; Plant response rating, Crabgrass, Large [12, 13]: 50; Plant response rating, Crabgrass, Large [12, 14]: 80; Plant response rating, Crabgrass, Large [12, 15]: 0; Plant response rating, Crabgrass, Large [12, 16]: 30
2 | O=C1CCCC(O)=C1C(=O)c1cnc(C2CCC2)n(-c2ccccc2)c1=O [Compound 114] | 75 | 65 | 40 | 30 | 20 | 0 | 40 | 20 | 60 | 80 | 40 | 80 | 90 | 100 | 80 | 100 | 100 | 100 | 100 | 10 | Plant response rating, Morningglory [6, 15]: 0; Plant response rating, Corn [8, 14]: 50; Plant response rating, Corn [8, 15]: 0; Plant response rating, Corn [8, 16]: 0; Plant response rating, Velvetleaf [9, 13]: 100; Plant response rating, Velvetleaf [9, 14]: 100; Plant response rating, Velvetleaf [9, 15]: 70; Plant response rating, Velvetleaf [9, 16]: 100; Plant response rating, Wheat [10, 13]: 0; Plant response rating, Wheat [10, 14]: 0; Plant response rating, Wheat [10, 15]: 0; Plant response rating, Wheat [10, 16]: 20; Plant response rating, Barnyardgrass [11, 13]: 70; Plant response rating, Barnyardgrass [11, 14]: 90; Plant response rating, Barnyardgrass [11, 15]: 30; Plant response rating, Barnyardgrass [11, 16]: 90; Plant response rating, Crabgrass, Large [12, 13]: 80; Plant response rating, Crabgrass, Large [12, 14]: 90; Plant response rating, Crabgrass, Large [12, 15]: 90; Plant response rating, Crabgrass, Large [12, 16]: 100
